How the values were obtained:
anti-DIG antibody = experiment: SPR imaging of anti-DIG antibody binding to the immobilized small molecular array; details: 4 J/cm^2; for binding of anti-DIG antibody to immobilized substance (FIG. 15): Comparative Example 2: irradiated at 245 nm, 50 μg/mL antibody run for 5 minutes; for binding of anti-DIG antibody to immobilized substance (FIG. 12): Example 1: photoimmobilized at 365 nm, 50 μg/mL antibody
anti-EST antibody = experiment: SPR imaging of anti-EST antibody binding to the immobilized small molecular array; details: Example 1: photoimmobilized at 365 nm, 4 J/cm^2; 50 μg/mL antibody

Row | SMILES | binding of anti-DIG antibody to immobilized substance (FIG. 15) (anti-DIG antibody) | binding of anti-DIG antibody to immobilized substance (FIG. 12) (anti-DIG antibody) | binding of anti-EST antibody to immobilized substance (FIG. 13) (anti-EST antibody)
1 | C[C@H]1O[C@@H](O[C@H]2[C@@H](O)C[C@H](O[C@H]3[C@@H](O)C[C@H](O[C@H]4CC[C@@]5(C)[C@H](CC[C@@H]6[C@@H]5C[C@@H](O)[C@]5(C)[C@@H](C7=CC(=O)OC7)CC[C@]65O)C4)O[C@@H]3C)O[C@@H]2C)C[C@H](O)[C@@H]1O [DIG, digoxin] | observed | obvious | 
2 | C[C@H]1O[C@@H](O[C@H]2[C@@H](O)C[C@H](O[C@H]3[C@@H](O)C[C@H](O[C@H]4CC[C@@]5(C)[C@H](CC[C@@H]6[C@@H]5CC[C@]5(C)[C@@H](C7=CC(=O)OC7)CC[C@]65O)C4)O[C@@H]3C)O[C@@H]2C)C[C@H](O)[C@@H]1O [DTN, digitoxin] | observed | obvious | 
3 | C[C@]12CC[C@@H]3c4ccc(O)cc4CC[C@H]3[C@@H]1CC[C@@H]2O [EST, β-Estradiol] |  |  | bound to only the spots of EST
4 | C[C@]12CCC(=O)C=C1CC[C@@H]1[C@@H]2[C@@H](O)C[C@@]2(C)[C@H]1CC[C@]2(O)C(=O)CO [HCN, Hydrocortisone] |  |  | No binding
5 | CC(=O)[C@H]1CC[C@H]2[C@@H]3CCC4=CC(=O)CC[C@]4(C)[C@H]3CC[C@]12C [PGS, Progesterone] |  |  | No binding

From patent US20080124809A1, “Method of Interaction Observation” (RIKEN, priority 2004, published 2008)
